{"source": "patent US20150045284A1", "about": "(priority 2011, published 2015)", "key": {"[1]": {"molecular_target": "LpCopA (Legionella pneumophila Cu^+ transporting P-type ATPase) (Legionella pneumophila subsp. pneumophila, UniProt Q5ZWR1)", "sequence (Q5ZWR1 whole entry, looked up)": "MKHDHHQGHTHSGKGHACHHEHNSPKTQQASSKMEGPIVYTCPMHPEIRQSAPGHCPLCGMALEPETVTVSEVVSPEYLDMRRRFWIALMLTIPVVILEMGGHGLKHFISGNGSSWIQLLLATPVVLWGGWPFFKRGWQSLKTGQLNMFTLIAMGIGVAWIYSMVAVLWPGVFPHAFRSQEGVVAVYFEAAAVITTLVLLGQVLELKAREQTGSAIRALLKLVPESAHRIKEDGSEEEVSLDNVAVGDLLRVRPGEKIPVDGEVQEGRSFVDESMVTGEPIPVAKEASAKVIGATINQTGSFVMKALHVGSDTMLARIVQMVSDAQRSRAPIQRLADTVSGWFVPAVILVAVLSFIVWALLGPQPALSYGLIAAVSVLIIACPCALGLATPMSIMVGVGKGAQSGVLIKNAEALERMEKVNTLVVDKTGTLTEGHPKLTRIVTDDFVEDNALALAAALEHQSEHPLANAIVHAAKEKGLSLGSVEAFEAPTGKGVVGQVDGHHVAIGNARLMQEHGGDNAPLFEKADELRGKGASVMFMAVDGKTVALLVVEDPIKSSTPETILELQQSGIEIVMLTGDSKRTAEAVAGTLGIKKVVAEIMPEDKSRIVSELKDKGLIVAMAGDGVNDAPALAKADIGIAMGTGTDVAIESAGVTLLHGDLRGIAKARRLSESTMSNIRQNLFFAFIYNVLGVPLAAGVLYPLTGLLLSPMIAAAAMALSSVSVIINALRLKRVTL", "conditions": "for Measured LpCopA activity in the presence of different ions (relative ATPase activity): 100 μM CuCl2 or AgNo3, 1 mg/mL E. coli total lipid extract, 20 mM cysteine, TTM background subtracted"}, "HMBD-truncated LpCopA": {"molecular_target": "HMBD-truncated LpCopA (Legionella pneumophila subsp. pneumophila, UniProt Q5ZWR1)", "sequence (Q5ZWR1 75-736 limits assumed)": "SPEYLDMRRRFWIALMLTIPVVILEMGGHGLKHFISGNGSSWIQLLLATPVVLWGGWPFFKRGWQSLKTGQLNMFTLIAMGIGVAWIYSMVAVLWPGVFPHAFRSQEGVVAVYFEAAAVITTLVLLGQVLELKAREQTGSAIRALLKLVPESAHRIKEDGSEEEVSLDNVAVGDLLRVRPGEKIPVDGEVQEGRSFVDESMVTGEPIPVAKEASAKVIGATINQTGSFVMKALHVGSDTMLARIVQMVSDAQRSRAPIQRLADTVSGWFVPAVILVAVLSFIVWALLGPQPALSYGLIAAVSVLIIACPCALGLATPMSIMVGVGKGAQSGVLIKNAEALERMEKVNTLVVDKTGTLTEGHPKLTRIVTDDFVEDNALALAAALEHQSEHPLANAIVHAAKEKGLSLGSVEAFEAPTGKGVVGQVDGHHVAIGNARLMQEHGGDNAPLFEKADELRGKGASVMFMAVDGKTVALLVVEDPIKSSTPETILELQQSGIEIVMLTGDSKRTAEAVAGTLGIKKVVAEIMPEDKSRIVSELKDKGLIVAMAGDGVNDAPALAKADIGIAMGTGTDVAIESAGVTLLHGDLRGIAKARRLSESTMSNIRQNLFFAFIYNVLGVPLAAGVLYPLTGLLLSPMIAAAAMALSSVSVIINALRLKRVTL"}}, "data": [{"smiles": "[Ag+]", "note": "[Ag^+]", "values": [{"measurement": "Measured LpCopA activity in the presence of different ions (relative ATPase activity)", "setting": "[1]", "result": "clearly stimulate ATPase activity"}]}, {"smiles": "[Cl][Cu][Cl]", "note": "[CuCl2]", "values": [{"measurement": "CuCl2 concentration of optimum ATPase activity", "setting": "HMBD-truncated LpCopA", "result": "about 1 mM"}, {"measurement": "CuCl2 concentration of highest ATPase activity", "setting": "[1]; full-length LpCopA, 10 nM to 10 mM CuCl2 incl. 10 μM TTM, appears inhibited above", "result": 1, "unit": "mM"}]}, {"smiles": "[Cu+]", "note": "[Cu^+]", "values": [{"measurement": "Measured LpCopA activity in the presence of different ions (relative ATPase activity)", "setting": "[1]", "result": "clearly stimulate ATPase activity"}]}]}
